Source: patent publication US6512000B1, “Aminocarbonyl-substituted benzimidazoles having tryptase-inhibitory activity” (Boehringer Ingelheim Pharma KG, priority 1999, dated 2003)
Counter-ions that a name gives are not always drawn.

Target: T1, rh beta tryptase (Homo sapiens, UniProt P20231)
T1 construct: purchased Promega
Assay: Tryptase inhibition test (cleavage of N-p-tosyl-Gly-Pro-Lys-para-nitroaniline, p-nitroaniline measured at 405 nm)
Type: biochemical
Settings: pH 7.4, 37° C.; for IC50: concentration at which 50% of the tryptase enzyme activity is inhibited, substrate 0.6 mM; for inhibition at 10 µM / % Inhibition (10 μM): inhibition of rh beta tryptase at 10 μM test substance, substrate N-p-tosyl-Gly-Pro-Lys-para-nitroaniline 0.6 mM, 5 minutes
Method in brief: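 Screening at 10 μM gives percent inhibition, with IC50 derived for compounds above 70% inhibition. Enzyme: rh beta tryptase, 0.91 U/ml, pH 7.4 Tris HCl (100 mM), 5 mM Ca, 100 mg/ml heparin. After 5 min compound pre-incubation, 0.6 mM pNA substrate cleaved 5 min at 37 °C, monitored at 405 nm.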

T1 sequence (P20231 31-275): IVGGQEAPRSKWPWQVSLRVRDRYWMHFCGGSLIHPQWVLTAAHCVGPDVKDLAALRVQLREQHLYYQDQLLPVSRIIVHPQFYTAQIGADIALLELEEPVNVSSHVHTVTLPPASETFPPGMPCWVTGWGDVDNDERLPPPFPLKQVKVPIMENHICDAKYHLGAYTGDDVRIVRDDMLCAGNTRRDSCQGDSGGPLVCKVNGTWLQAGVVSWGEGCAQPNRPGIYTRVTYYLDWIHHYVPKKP

IC50	inhibition at 10 µM	% Inhibition (10 μM)	Compound
422 nM	63%		CCOCCCn1c(CCc2ccc(C(=N)N)cc2)nc2cc(C(=O)N(Cc3ccc(CN)cc3)Cc3cccc(OC)c3)ccc21 [Example 70, 2-[2-(4-amidinophenyl)ethyl]-1-(3-ethoxy-propyl)-benzimidazol-5-yl-carboxylic acid-N-[4-(amino-methyl)-benzyl]-N-(3-methoxybenzyl)-amide]
		63%	2-[2-(4-amidinophenyl)ethyl]-1-[2-(4-chlorophenyl)ethyl]-benzimidazol-5-yl-carboxylic acid-N-[4-(amino-methyl)-benzyl]-N-(3-pyridyl)-amide [Example 140]
	75%		CCCCN(CCN)C(=O)c1ccc2c(c1)nc(CCc1ccc(C(=N)N)cc1)n2Cc1cccs1 [Example 291, 2-[2-(4-amidinophenyl)ethyl]-1-(2-thiophenyl-methyl)-benzimidazol-5-ylcarboxylic acid-N-(2-aminoethyl)-N-n-butyl-amide]
	55%		CCCCN(CCCC)CCCn1c(CCc2ccc(C(=N)N)cc2)nc2cc(C(=O)N(CCN)Cc3ccccc3)ccc21 [Example 295, 2-[2-(4-amidinophenyl)ethyl]-1-(3-di-n-butylaminopropyl)-benzimidazol-5-yl-carboxylic acid-N-(2-aminoethyl)-N-benzyl-amide]
350 nM	69%		CCOCCCn1c(CCc2ccc(C(=N)N)cc2)nc2cc(C(=O)N(CCN)Cc3ccccc3)ccc21 [Example 294, 2-[2-(4-amidinophenyl)ethyl]-1-(3-ethoxypropyl)-benzimidazol-5-yl-carboxylic acid-N-(2-aminoethyl)-N-benzyl-amide]
	51%		N=C(N)c1ccc(CCc2nc3cc(C(=O)N(Cc4ccc(CN)cc4)Cc4ccccc4F)ccc3n2CCc2ccccc2)cc1 [Example 219, 2-[2-(4-amidinophenyl)ethyl]-1-(2-phenylethyl)-benzimidazol-5-yl-carboxylic acid-N-[4-(amino-methyl)-benzyl]-N-(2-fluorobenzyl)-amide]
	52%		Cc1ccccc1N1CCN(CCCn2c(CCc3ccc(C(=N)N)cc3)nc3cc(C(=O)N(CCN)Cc4cccc(C(F)(F)F)c4)ccc32)CC1 [Example 400, 2-[2-(4-amidinophenyl)ethyl]-1-{3-[4-(2-methylphenyl)-piperazin-1-yl]-propyl}-benzimidazol-5-yl-carboxylic acid-N-(2-aminoethyl)-N-(3-trifluoromethylbenzyl)-amide]
	52%		COC(=O)c1ccc(CN(Cc2ccc(CN)cc2)C(=O)c2ccc3c(c2)nc(CCc2ccc(C(=N)N)cc2)n3Cc2ccc(C)cc2)cc1 [Example 445, 2-[2-(4-amidinophenyl)ethyl]-1-(4-methylbenzyl)-benzimidazol-5-yl-carboxylic acid-N-[4-(amino-methyl)-benzyl]-N-[4-(methoxycarbonyl)-benzyl]-amide]
32 nM			Cn1c(CCc2ccc(C(=N)N)cc2)nc2cc(C(=O)N(CCN(Cc3ccccc3)Cc3ccccc3)c3ccccc3)ccc21 [Example 19]
	64%		COC(=O)c1ccc(CN(Cc2ccc(CN)cc2)C(=O)c2ccc3c(c2)nc(CCc2ccc(C(=N)N)cc2)n3CCCNC(=O)Cc2ccccc2)cc1 [Example 440, 2-[2-(4-amidinophenyl)ethyl]-1-[3-(benzylcarbonylamino)-propyl]-benzimidazol-5-yl-carboxylic acid-N-[4-(amino-methyl)-benzyl]-N-[4-(methoxycarbonyl)-benzyl]-amide]
		59%	Cc1ccccc1N1CCN(CCCn2c(CCc3ccc(C(=N)N)cc3)nc3cc(C(=O)N(CCN)Cc4ccc(Cl)cc4)ccc32)CC1 [Example 384, 2-[2-(4-amidinophenyl)ethyl]-1-{3-[4-(2-methylphenyl)-piperazin-1-yl]-propyl} -benzimidazol-5-yl-carboxylic acid-N-(2-aminoethyl)-N-(4-chlorbenzyl)-amide]
	65%		CCCCN(CCN)C(=O)c1ccc2c(c1)nc(CCc1ccc(C(=N)N)cc1)n2CC1CC1 [Example 282, 2-[2-(4-amidinophenyl)ethyl]-1-cyclopropylmethyl-benzimidazol-5-yl-carboxylic acid-N-(2-aminoethyl)-N-n-butyl-amide]
169 nM	77%		CCOCCCn1c(CCc2ccc(C(=N)N)cc2)nc2cc(C(=O)N(CCN)CCCc3ccccc3)ccc21 [Example 358, 2-[2-(4-amidinophenyl)ethyl]-1-(3-ethoxypropyl)-benzimidazol-5-yl-carboxylic acid-N-(2-aminoethyl)-N-(3-phenylpropyl)-amide]
	51%		N=C(N)c1ccc(CCc2nc3cc(C(=O)N(CCN)Cc4cccc(C(F)(F)F)c4)ccc3n2CC2CCCO2)cc1 (stereo not drawn) [Example 402, 2-[2-(4-amidinophenyl)ethyl]-1-(tetrahydrofuran-2-yl-methyl)-benzimidazol-5-yl-carboxylic acid-N-(2-aminoethyl)-N-(3-trifluoromethylbenzyl)-amide]
	56%		N=C(N)c1ccc(CCc2nc3cc(C(=O)N(Cc4ccc(CN)cc4)CC4CCCCC4)ccc3n2CCCN2CCOCC2)cc1 [Example 161, 2-[2-(4-amidinophenyl)ethyl]-1-[3-(morpholin-4-yl)-propyl]-benzimidazol-5-yl-carboxylic acid-N-[4-(amino-methyl)-benzyl]-N-cyclohexylmethyl-amide]
	53%		N=C(N)c1ccc(CCc2nc3cc(C(=O)N(Cc4ccc(CN)cc4)Cc4cccc(C(F)(F)F)c4)ccc3n2CCc2ccccc2)cc1 [Example 203, 2-[2-(4-amidinophenyl)ethyl]-1-(2-phenylethyl)-benzimidazol-5-yl-carboxylic acid-N-[4-(amino-methyl)-benzyl]-N-(3-trifluoromethylbenzyl)-amide]
68 nM			Cn1c(CCc2ccc(C(=N)N)cc2)nc2cc(C(=O)N(CCN)C3CCCCC3)ccc21 [Example 37, 2-[2-(4-Amidinophenyl)-ethyl]-1-methyl-benzimidazol-5-yl-carboxylic Acid-[N-(2-amino-ethyl)-N-cyclohexyl-amide]-dihydrochloride]
245 nM			CCOC(=O)CN(Cc1ccc(C(=N)N)cc1)C(=O)c1ccc2c(c1)nc(CCc1ccc(C(=N)N)cc1)n2C [Example 5, 2-[2-(4-Amidinophenyl)-ethyl]-1-methyl-benzimidazol-5-yl-carboxylic Acid-N-(4-amidino-benzyl)-N-ethoxycarbonylmethyl-amide-dihydrochloride]
	62%		CCCCN(Cc1ccc(CN)cc1)C(=O)c1ccc2c(c1)nc(CCc1ccc(C(=N)N)cc1)n2CCc1ccccc1 [Example 91, 2-[2-(4-amidinophenyl)ethyl]-1-(2-phenylethyl)-benzimidazol-5-yl-carboxylic acid-N-[4-(amino-methyl)-benzyl]-N-n-butyl-amide]
	51%		Cc1ccccc1N1CCN(CCCn2c(CCc3ccc(C(=N)N)cc3)nc3cc(C(=O)N(CCN)CC4CCCCC4)ccc32)CC1 [Example 352, 2-[2-(4-amidinophenyl)ethyl]-1-{3-[4-(2-methylphenyl)-piperazin-1-yl]-propyl}-benzimidazol-5-yl-carboxylic acid-N-(2-aminoethyl)-N-cyclohexylmethyl-amide]
		56%	CCCCN(CCCC)CCCn1c(CCc2ccc(C(=N)N)cc2)nc2cc(C(=O)N(Cc3ccc(Cl)cc3)Cc3ccc(CN)cc3)ccc21 [Example 183, 2-[2-(4-amidinophenyl)ethyl]-1-(3-di-n-butylaminopropyl)-benzimidazol-5-yl-carboxylic acid-N-[4-(amino-methyl)-benzyl]-N-(4 chlorbenzyl)-amide]
887 nM			CN(Cc1cccnc1)C(=O)c1ccc2c(c1)nc(CCc1ccc(C(=N)N)cc1)n2C [Example 1, 2-[2-(4-Amidinophenyl)ethyl]-1-methyl-benzimidazol-5-yl-carboxylic Acid-N-(pyridin-3-yl-methyl)-N-methyl-amide-hydrochloride]
	58%		N=C(N)c1ccc(CCc2nc3cc(C(=O)N(Cc4ccccc4)Cc4ccc(CN)cc4)ccc3n2CC2CC2)cc1 [Example 106, 2-[2-(4-amidinophenyl)ethyl]-1-cyclopropylmethyl-benzimidazol-5-yl-carboxylic acid-N-[4-(amino-methyl)-benzyl]-N-benzyl-amide]
241 nM			COc1ccccc1N1CCN(C(=O)c2ccc3c(c2)nc(CCc2ccc(C(=N)N)cc2)n3C)CC1 [Example 53, 2-[2-(4-Amidinophenyl)-ethyl]-1-methyl-benzimidazol-5-yl-carboxylic Acid-[N′-(2-methoxyphenyl)-piperazide]]
		72%	N=C(N)c1ccc(CCc2nc3cc(C(=O)N(Cc4ccc(Cl)cc4)Cc4ccc(CN)cc4)ccc3n2CCCNC(=O)Cc2ccccc2)cc1 [Example 184, 2-[2-(4-amidinophenyl)ethyl]-1-[3-(benzylcarbonylamino)-propyl]-benzimidazol-5-yl-carboxylic acid-N-[4-(amino-methyl)-benzyl]-N-(4-chlorbenzyl)-amide]
		74%	2-[2-(4-amidinophenyl)ethyl]-1-[3-(benzylcarbonylamino)-propyl]-benzimidazol-5-yl-carboxylic acid-N-[4-(amino-methyl)-benzyl]-N-(3-pyridyl)-amide [Example 136]
49 nM			Cn1c(CCc2ccc(C(=N)N)cc2)nc2cc(C(=O)N(CCC(=N)N)c3cccc(Oc4ccccc4)c3)ccc21 [Example 23, 2-[2-(4-Amidinophenyl)-ethyl]-1-methyl-benzimidazol-5-yl-carboxylic Acid-N-(2-amidinoethyl)-N-(3-phenoxy-phenyl)-amide-dihydrochloride]
